Experiments:
A549 cells = experiment: MTT cell viability assay, A549 cells; format: cell-based; details: Homo sapiens, 24 h, 0–200 µM, read-out: IC50 ± SEM of NSCLC cells, A549
Description: (§1) NSCLC cells were cultured overnight and treated with various concentrations (0–200 µM) of resveratrol derivatives (RD1-RD5) and resveratrol for 24 h, and then cell viability was analyzed by the 3-(4, 5-dimethylthiazolyl-2)-2, 5-diphenyltetrazolium bromide (MTT) assay to evaluate the percentage of cell viability. All of the data were calculated on the basis of the results of three replicated samples. […] The difference of the structure at C-4 was that the hydroxyl group of RD2 was modified to the methoxy group of RD3 and at C-3, the methoxy group of RD2 was changed to the hydroxyl group of RD3. […] Furthermore, resveratrol decreased cell viability in NSCLC cells (A549, H23, and H460) with the IC50 at more than 200 µM which was the same RD3 (Figure 2a–d). This different action on cancer cells as a result of chemical structure modification has provided an insight for the structure–activity relationship that may facilitate the further development of the potent compound from the lead structure of resveratrol derivatives. Cell viability was investigated by MTT colorimetric assay. All cell lines were cultured at the density of 1 × 10^4 cells per well in a 96-well tissue culture plate and incubated in an incubator. After that, cells were treated with various concentrations of RD1-RD5 for 24 h at 37 °C and analyzed by the MTT assay according to the manufacturer’s protocol (Sigma Chemical, St. Louis, MO, USA). In calculating the cell viability by a microplate reader (Anthros, Durham, NC, USA), the measured absorbance of treated cells were divided by the value of untreated cells and are reported as a percentage.

H23 cells = experiment: MTT cell viability assay, H23 cells; format: cell-based; details: Homo sapiens, NCI-H23, 24 h, 0–200 µM, read-out: IC50 ± SEM of NSCLC cells, H23
Description: as §1

H460 cells = experiment: MTT cell viability assay, H460 cells; format: cell-based; details: Homo sapiens, NCI-H460, 24 h, 0–200 µM, read-out: IC50 ± SEM of NSCLC cells, H460
Description: as §1

DP cells = experiment: MTT cell viability assay, normal dermal papilla (DP) cells; format: cell-based; details: 24 h
Description: To confirm the selective cytotoxicity of resveratrol derivatives (RD2 and RD3) in cancer cells, resveratrol derivatives (RD2 and RD3) and resveratrol were determined for the cytotoxic profile in normal human cells, dermal papilla (DP).
Cell viability was investigated by MTT colorimetric assay. All cell lines were cultured at the density of 1 × 10^4 cells per well in a 96-well tissue culture plate and incubated in an incubator. After that, cells were treated with various concentrations of RD1-RD5 for 24 h at 37 °C and analyzed by the MTT assay according to the manufacturer’s protocol (Sigma Chemical, St. Louis, MO, USA). In calculating the cell viability by a microplate reader (Anthros, Durham, NC, USA), the measured absorbance of treated cells were divided by the value of untreated cells and are reported as a percentage.

p-Akt/Akt in A549 cells = experiment: Western blot of p-Akt/Akt, A549 cells; format: cell-based, human; details: A549 cells, 100 μM, 12 h, vs untreated control
Description: (§2) NSCLC cells (A549 and H23) were treated with RD2 and RD3 (10–100 μM) for 12 h. After which, all cells were collected and the expression levels of Akt, p-Akt, mTOR, and p-mTOR were investigated by Western blot analysis (Figure 5a, Figure 6a, Figure 7a and Figure 8a). […] Immunofluorescence staining of Akt, p-Akt, mTOR, and p-mTOR was performed in RD2 and RD3 treated cells. The results further confirm the effect of RD2 and RD3 on the Akt/mTOR pathway.
(§3) Western blotting was used to detect the presence of specific protein. Cells were seed at a density of 4 × 10^5 cells/well in 6 well plates overnight. Cells were treated with various concentrations RD1-RD5 were treated for 12 h. After treatment, the apoptosis cells were collected by centrifuging media with 1500 rpm for 5 min and aspirating supernatants. Then, cells were washed with cold 1× PBS and incubated with 1X RIPPA 40 µL containing 10× RIPA buffer 100 µL, protease inhibitors (PI) 100 µL, PMSF 10 µL, and Triton × 10 µL for 30 min on ice. BCA protein assay kit from Pierce Biotechnology (Rockford, IL, USA) analyzed protein concentrations. The extracted proteins were separated by 7.5–10% sodium dodecyl sulfate polyacrylamide gel electrophoresis (SDS-PAGE) and transferred to polyvinylidene difluoride membrane (PVDF). Then, the membranes were blocked with 5% non-fat milk powder for 2 h. After that, they were incubated with primary antibody at 4 °C Akt (#9272), phosphorylated Akt (#4060), mTOR (#2983S), and p-mTOR (#5536S) overnight. The membranes were washed with Tris-buffered saline/Tween 20 3 times and incubated with secondary antibodies for 2 h. Finally, the protein bands were detected using chemiluminescence substrate and exposed by Chemiluminescent ImageQuant LAS4000. Protein bands were analyzed using Image J software.

[1] = tested on: p-mTOR/mTOR in A549 cells; experiment: Western blot of p-mTOR/mTOR, A549 cells; format: cell-based, human; details: 100 μM, 12 h, vs untreated control
Description: as §2, §3

p-Akt/Akt in H23 cells = experiment: Western blot of p-Akt/Akt, H23 cells; format: cell-based, human; details: 100 μM, 12 h, vs untreated control
Description: as §2, §3

p-mTOR/mTOR in H23 cells = experiment: Western blot of p-mTOR/mTOR, H23 cells; format: cell-based, human; details: 100 μM, 12 h, vs untreated control
Description: as §2, §3

Row | SMILES | IC50 (A549 cells) [µM] | IC50 (H23 cells) [µM] | IC50 (H460 cells) [µM] | effect on cell viability percentages in DP cells (DP cells; normal human dermal papilla cells) | IC50 (DP cells; Human dermal papilla cell, 0–200 µM, read-out: IC50 ± SEM of DP cells) [µM] | p-Akt/Akt protein expression levels (p-Akt/Akt in A549 cells) | p-mTOR/mTOR protein expression levels [1] | p-Akt/Akt protein expression levels (p-Akt/Akt in H23 cells) | p-mTOR/mTOR protein expression levels (p-mTOR/mTOR in H23 cells)
1 | COc1ccc(CCc2cc(OC)c(O)c(OC)c2)cc1O [RD4, 4-(3-hydroxy-4-methoxyphenethyl)-2,6-dimethoxyphenol] | 113 ± 25.5 | 109 ± 17.3 | 122 ± 28.6 | – | – | – | – | – | –
2 | COc1cc(CCc2cc(OC)c(O)c(OC)c2)cc(OC)c1O [RD5, 4,4′-(ethane-1,2-diyl)bis(2,6-dimethoxyphenol)] | 185 ± 58.7 | 82.6 ± 13.1 | 153 ± 59.6 | – | – | – | – | – | –
3 | Oc1ccc(C=Cc2cc(O)cc(O)c2)cc1 [Resveratrol, 3,5,4′-trihydroxystilbene] | > 200 | > 200 | > 200 | did not significantly affect | > 200 | significant decrease | significant decrease | significant decrease | significant decrease

— PMC9739815, “Akt/mTOR Targeting Activity of Resveratrol Derivatives in Non-Small Lung Cancer” (Molecules, 2022)
